{
  "source": "patent US20260115176A1",
  "about": "“ALLOSTERIC MODULATORS OF CANNABINOID RECEPTORS AND METHODS OF TREATING NEUROPATHIC PAIN” (The Board of Trustees of the Leland Stanford Junior …, priority 2020, published 2026)",
  "origin": "cited, not measured here",
  "test_system": "rodent model of neuropathic pain",
  "settings": "background statement",
  "data": [
    {"smiles": "Cc1ccc2c(C(C[N+](=O)[O-])c3cccs3)c(-c3ccccc3)[nH]c2c1", "note": "(centres unmarked) [ZCZ-011]", "values": [
      {"measurement": "efficacy in rodent model of neuropathic pain", "value": "could treat a rodent model of neuropathic pain"},
      {"measurement": "psychoactive or hypothermic effects", "value": "without psychoactive or hypothermic effects"}
    ]}
  ]
}
